Reference: patent EP4722213A1, “NITROGEN-CONTAINING FUNCTIONAL GROUP-SUBSTITUTED PYRIDAZINOPYRIDONE DERIVATIVE AND USE THEREOF” (Sichuan Huiyu Pharmaceutical Co., Ltd., priority 2023, dated 2024)
pIC50: −log10 of the molar value. Structures can show the parent of a compound that is named as a salt.

target: T1, SOS1 (Homo sapiens, UniProt Q07889); test: biochemical
T1 sequence (Q07889 1-1333): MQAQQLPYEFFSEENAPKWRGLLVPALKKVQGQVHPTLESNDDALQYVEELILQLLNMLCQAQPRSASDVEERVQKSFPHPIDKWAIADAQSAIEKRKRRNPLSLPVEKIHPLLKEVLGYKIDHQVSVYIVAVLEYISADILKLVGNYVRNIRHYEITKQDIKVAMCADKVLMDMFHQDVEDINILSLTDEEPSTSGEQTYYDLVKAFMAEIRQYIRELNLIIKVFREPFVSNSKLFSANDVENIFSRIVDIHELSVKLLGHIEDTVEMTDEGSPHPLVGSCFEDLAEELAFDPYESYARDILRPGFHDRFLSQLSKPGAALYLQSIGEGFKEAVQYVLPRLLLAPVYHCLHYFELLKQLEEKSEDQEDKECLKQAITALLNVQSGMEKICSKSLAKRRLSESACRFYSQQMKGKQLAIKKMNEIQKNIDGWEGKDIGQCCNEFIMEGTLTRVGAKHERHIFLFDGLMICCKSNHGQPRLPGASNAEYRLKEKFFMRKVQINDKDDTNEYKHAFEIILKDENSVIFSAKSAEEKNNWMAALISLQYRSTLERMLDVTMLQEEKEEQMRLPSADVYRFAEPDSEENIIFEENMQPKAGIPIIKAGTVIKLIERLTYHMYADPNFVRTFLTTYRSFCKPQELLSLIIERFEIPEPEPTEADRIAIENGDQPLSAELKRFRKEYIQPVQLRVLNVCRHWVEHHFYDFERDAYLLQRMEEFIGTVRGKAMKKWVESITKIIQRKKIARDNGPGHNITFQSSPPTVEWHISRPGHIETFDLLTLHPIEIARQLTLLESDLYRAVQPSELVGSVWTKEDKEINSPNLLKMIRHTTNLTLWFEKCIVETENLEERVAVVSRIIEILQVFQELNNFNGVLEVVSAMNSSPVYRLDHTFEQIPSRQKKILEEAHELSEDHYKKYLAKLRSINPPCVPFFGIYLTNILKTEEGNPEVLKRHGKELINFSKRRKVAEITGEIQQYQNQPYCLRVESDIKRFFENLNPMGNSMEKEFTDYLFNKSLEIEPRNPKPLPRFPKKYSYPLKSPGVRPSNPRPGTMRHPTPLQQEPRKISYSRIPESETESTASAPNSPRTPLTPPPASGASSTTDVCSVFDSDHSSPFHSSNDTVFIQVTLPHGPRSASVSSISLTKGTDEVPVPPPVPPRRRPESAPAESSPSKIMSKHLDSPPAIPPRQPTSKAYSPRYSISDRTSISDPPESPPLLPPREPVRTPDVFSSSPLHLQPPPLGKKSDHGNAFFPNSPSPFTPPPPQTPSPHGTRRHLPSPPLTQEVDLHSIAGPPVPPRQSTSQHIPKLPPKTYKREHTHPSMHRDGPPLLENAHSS

Q: `C[C@@H](Nc1nnc(N2CCN(C)[C@@H](C)C2)c2cc(=O)n(C3(C)CC3)cc12)c1cccc(C(F)(F)F)c1` [Example 180, 1-((S)-3,4-dimethylpiperazin-1-yl)-6-(1-methylcyclopropyl)-4-(((R)-1-(3-(trifluoromethyl)phenyl)ethyl)amino)pyr ido[3,4-d]pyridazin-7(6H)-one formate] was tested. Which pIC50 did it give?
A: Its pIC50 is 8.14.

Q: How did the pIC50 turn out when `Cc1c(C#N)cccc1[C@@H](C)Nc1nnc(N2CCN(C)[C@H](C)C2)c2cc(=O)n(N3CC4CCCC4C3)cc12` (stereo partly drawn) [Example 167, 3-((1R)-1-((1-((R)-3,4-dimethylpiperazin-1-yl)-6-(hexahydrocyclopenta[c]pyrrol-2(1H)-yl)-7-oxo-6,7-dihydropyrido[3,4-d]pyridazin-4-yl)amino)ethyl)-2-methylbenzonitrile] was run?
A: The pIC50 was 8.20.

Q: With `Cc1c([C@@H](C)Nc2nnc(N3CCN(C)CC3)c3cc(=O)n(C4(C)CC4)cc23)cccc1S(=O)(=O)C(F)F` [Example 209, (R)-4-((1-(3-((difluoromethyl)sulfonyl)-2-methylphenyl)ethyl)amino)-6-(1-methylcyclopropyl)-1-(4-methylpiperazin-1-yl)pyrido[3,4-d]pyridazin-7(6H)-one] as the molecule, how does the pIC50 read?
A: The pIC50 was 8.36.

Q: `Cc1c([C@@H](C)Nc2nnc(N3CCS(=O)(=O)CC3)c3cc(=O)n(C4(C)CC4)cc23)cccc1C(F)(F)F` [Example 68, (R)-1-(1,1-dioxidothiomorpholino)-4-((1-(2-methyl-3-(trifluoromethyl)phenyl)ethyl)amino)-6-(1-methylcyclopropyl) pyrido[3,4-d]pyridazin-7(6H)-one] was tested. Which pIC50 did it give?
A: The pIC50 was 7.72.

Q: `Cc1c(C#N)cccc1[C@@H](C)Nc1nnc(N2CCN(C3CCC3)CC2)c2cc(=O)n(C3CC3)cc12` [Example 100, (R)-3-(1-((1-(4-cyclobutylpiperazin-1-yl)-6-cyclopropyl-7-oxo-6,7-dihydropyrido[3,4-d]pyridazin-4-yl)amino)ethyl)-2-methylbenzonitrile] was tested. Which pIC50 did it give?
A: The pIC50 was 7.96.

Q: How did the pIC50 turn out when `Cc1c(C#N)cccc1[C@@H](C)Nc1nnc(N2CCCC2)c2cc(=O)n(C3CC3)cc12` [Example 37, (R)-3-(1-((6-cyclopropyl-7-oxo-1-(pyrrolidin-1-yl)-6,7-dihydropyrido[3,4-d]pyridazin-4-yl)amino)ethyl)-2-methylbenzonitrile] was run?
A: The pIC50 was 8.04.

Q: With `Cc1c(C#N)cccc1[C@@H](C)Nc1nnc(N2CCC(F)(F)CC2)c2cc(=O)n(C3CC3)cc12` [Example 43, (R)-3-(1-((6-cyclopropyl-1-(4,4-difluoropiperidin-1-yl)-7-oxo-6,7-dihydropyrido[3,4-d]pyridazin-4-yl)amino)ethyl)-2-methylbenzonitrile] as the molecule, how does the pIC50 read?
A: Its pIC50 is 7.07.

Q: With `C[C@@H](Nc1nnc(N2CCN(CC3CC3)CC2)c2cc(=O)n(N3CCN(C)CC3)cc12)c1cccc(C(F)F)c1F` [Example 154, (R)-1-(4-(cyclopropylmethyl)piperazin-1-yl)-4-((1-(3-(difluoromethyl)-2-fluorophenyl)ethyl)amino)-6-(4-methylpiperazin-1-yl)pyrido[3,4-d]pyridazin-7(6H)-one] as the molecule, how does the pIC50 read?
A: Its pIC50 is 8.27.

Q: How did the pIC50 turn out when `Cc1c(C#N)cccc1[C@@H](C)Nc1nnc(N(C)C)c2cc(=O)n(C3CC3)cc12` [Example 39, (R)-3-(1-((6-cyclopropyl-1-(dimethylamino)-7-oxo-6,7-dihydropyrido[3,4-d]pyridazin-4-yl)amino)ethyl)-2-methylbenzonitrile] was run?
A: The pIC50 was 7.62.

Q: With `C[C@@H](Nc1nnc(N2CC3CCCC3C2)c2cc(=O)n(C3(C)CC3)cc12)c1cccc(C(F)F)c1F` (stereo partly drawn) [Example 188, 4-(((R)-1-(3-(difluoromethyl)-2-fluorophenyl)ethyl)amino)-1-(hexahydrocyclopenta[c]pyrrol-2(1H)-yl)-6-(1-methylcyclopropyl) pyrido[3,4-d]pyridazin-7(6H)-one] as the molecule, how does the pIC50 read?
A: The pIC50 was 8.51.

Q: `CC(=O)N1CCN(c2nnc(N[C@H](C)c3cccc(C(F)F)c3F)c3cn(C4(C)CC4)c(=O)cc23)CC1` [Example 79, (R)-1-(4-acetylpiperazin-1-yl)-4-((1-(3-(difluoromethyl)-2-fluorophenyl)ethyl)amino)-6-(1-methylcyclopropyl)pyrido[3,4-d]pyridazin-7(6H)-one] was tested. Which pIC50 did it give?
A: The pIC50 was 7.90.
